# Measurements: patent US11835523B2, “Assays for improving automated antimicrobial susceptibility testing accuracy” (priority 2018, dated 2023)
# Tests used:
# Format in all cases: cell-based
# E. coli = test: Acidimetric carbapenemase assay, four wells, intact microbes (Example 2); design: key: Normalized activity = (Well1−Well2)−(Well3−Well4), pH indicator signal; details: 5 mg/mL imipenem solution added 1:1, 4 hours
# Source text: (§1) In an exemplary embodiment, the assay comprises a minimum of 4 wells and utilizes a sample comprising intact microbes. The first well (Well1) comprises a medium such as a buffered saline solution or a nutrient broth, a carbapenem, ionic zinc, and a pH indictor. The second well (Well2) comprises the medium, a carbapenem, ionic zinc, a pH indictor, and a microbe sample comprising <1×10^8 CFU microbes. The third well (Well3) comprises the medium, ionic zinc, and a pH indictor. The fourth well (Well4) comprises the medium, ionic zinc, a pH indictor, and a microbe sample comprising <1×10^8 CFU microbes. The following formula can then be utilized to normalize the result: Normalized Activity=(Well1−Well2)−(Well3−Well4) [Formula 1]
# (§2) The above says that imipenem degradation is the change in pH (e.g. loss of signal) due to the presence of microbes less the change in pH (e.g. loss of signal) due to microbes in solution only.
# (§3) Example 2. Microbes were prepared by diluting colonies into saline to reach a McFarland value of 0.5, which was verified using a spectrophotometer. 100 μL of the microbe solution was added to each of 2 wells in a 96-well plate. 100 μL of saline was added to 2 separate wells on the plate. 100 μL of an imipenem solution containing 5 mg/mL imipenem, 0.1 mM ZnSO4, and 10 μM Fluorescein Na salt, pH 8, was added to one of the microbe-containing wells (Well2) and one of the saline wells (Well1). 100 μL of a negative control solution containing 0.1 mM ZnSO4, and 10 μM Fluorescein Na salt pH 7.5, was added to one of the microbe-containing wells (Well4) and one of the saline wells (Well3). Plates were incubated, shaking at 35° C. for 4 hours and fluorescence of the wells was read at […]. The values reported were calculated to determine the hydrolysis of imipenem by the microbes using Equation 1.
# K. pneumoniae = test: as above; details: 5 mg/mL imipenem solution added 1:1, 4 hours
# Source text: as §1, §2, §3
# K pneumoniae [1] = test: Carbapenemase assay at various concentrations of imipenem (Example 3); design: unit not given here; details: within 4 hours
# Source text: as §1
# (§4) Example 3. Microbes were prepared by diluting colonies into saline to reach a McFarland value of 0.5, which was verified using a spectrophotometer. 25 μL of the microbe solution was added to each of 2 wells in a 384-well plate. 25 μL of saline was added to 2 separate wells on the plate. 25 μL of an imipenem solution containing imipenem, 0.1 mM ZnSO4, and 10 μm Fluorescein Na Salt, pH 8, was added to one of the microbe-containing wells (Well2) and one of the saline wells […]. 25 μL of a negative control solution containing 0.1 mM ZnSO4, and 10 μM Fluorescein Na Salt, pH 7.5, was added to one of the microbe containing wells (Well4) and one of the saline wells (Well3). Plates were incubated, shaking at 35° C. for 3 hours and fluorescence of the wells was read at Em=490/Ex=510. This organization of the assay was performed multiple times, varying the concentration of imipenem in solution. The assay was run with final imipenem concentrations of 50 μg/mL, 125 μg/mL, 250 μg/mL, 500 μg/mL, 1250 μg/mL, and 2500 μg/mL. The values reported were calculated to determine the hydrolysis of imipenem by the microbes using Equation 1.
# E coli [2] = test: as above; details: within 4 hours
# Source text: as §1, §4
# K pneumoniae [3] = test: Carbapenemase assay performed with dried reagents (Example 4); details: 4 hours
# Source text: as §1
# (§5) Example 4. Microbes were prepared by diluting colonies into saline to reach a McFarland value of 0.5, which was verified using a spectrophotometer. 100 μL of the microbe solution was added to each of 2 wells in a vacuum-dried 96-well plate (Well2, Well4). 100 μL of saline was added to 2 separate wells on the plate (Well1 and Well3). Following addition of microbial or saline solutions, the final concentrations of the contents in each well were: 300 μg/mL imipenem, 0.05 mM ZnSO4, and 10 μM Fluorescein Na Salt, pH 7.8, (Well1, Well2); only 0.05 mM ZnSO4 and 10 μM Fluorescein Na Salt, pH 7.8, were present in the third and four wells (Well3, Well4). Plates were incubated, shaking at 35° C. for 4 hours and fluorescence of the wells was read at Em=490/Ex=510. The values reported were calculated to determine the hydrolysis of imipenem by the microbes using Equation 1.
# E coli [4] = test: as above; details: E coli ATCC 25922, known carbapenemase none, 300 μg/mL imipenem, 4 hours
# Source text: as §1, §5
structure (smiles),measurement,setting,value
C[C@@H](O)[C@H]1C(=O)N2C(C(=O)O)=C(SCCN=CN)C[C@H]12 [imipenem],Carbapenemase Activity,"E. coli; E. coli 25922, known carbapenemase none",−2106.4115
same,Carbapenemase Activity,"E. coli; E. coli AEL18, known carbapenemase none",−1551.4885
same,Carbapenemase Activity,"E. coli; E. coli AEL19, known carbapenemase none",−696.4825
same,Carbapenemase Activity,"E. coli; E. coli AEL 20, known carbapenemase none",−882.3165
same,Carbapenemase Activity,"E. coli; E. coli AR0346, known carbapenemase none, ESBL +",−2560.861
same,Carbapenemase Activity,"E. coli; E. coli AR0348, known carbapenemase none",−2960.1665
same,Carbapenemase Activity,"E. coli; E. coli AR0349, known carbapenemase none, ESBL +",−2861.008
same,Carbapenemase Activity,"E. coli; E. coli CDC BIT 01, known carbapenemase KPC",8803.9255
same,Carbapenemase Activity,"E. coli; E. coli CDC CNP 27, known carbapenemase none, ESBL +",−2401.2335
same,Carbapenemase Activity,"E. coli; E. coli CDC CNP 38, known carbapenemase NDM",19534.8825
same,Carbapenemase Activity,"E. coli; E. coli CDC CNP 54, known carbapenemase none, Amp beta lactamase",−1950.443
same,Carbapenemase Activity,"E. coli; E. coli CDC CNP 73, known carbapenemase KPC",3480.1845
same,Carbapenemase Activity,"E. coli; E. coli CDC CRE 03, known carbapenemase KPC-3",7149.729
same,Carbapenemase Activity,"E. coli; E. coli CDC CRE 07, known carbapenemase NDM",27447.359
same,Carbapenemase Activity,"E. coli; E. coli CDC CRE 17, known carbapenemase NDM",36400.9235
same,Carbapenemase Activity,"E. coli; E. coli CDC CRE 26, known carbapenemase NDM",41326.61
same,Carbapenemase Activity,"E. coli; E. coli SML 19, known carbapenemase none",−2540.0545
same,Carbapenemase Activity,"E. coli; E. coli SML20, known carbapenemase none",−2734.3825
same,Carbapenemase Activity,"E. coli; E. coli TRICORE 71, known carbapenemase none",−1138.2225
same,Carbapenemase Activity,"E. coli; E. coli TRICORE 72, known carbapenemase none",−2554.797
same,Carbapenemase Activity,"K. pneumoniae; K. pneumoniae 700603, known carbapenemase none",−2659.8725
same,Carbapenemase Activity,"K. pneumoniae; K. pneumoniae CDC CNP 03, known carbapenemase IMP",3662.106
same,Carbapenemase Activity,"K. pneumoniae; K. pneumoniae CDC CNP 08, known carbapenemase OXA-181",1323.2385
same,Carbapenemase Activity,"K. pneumoniae; K. pneumoniae CDC CNP 09, known carbapenemase VIM",2315.76
same,Carbapenemase Activity,"K. pneumoniae; K. pneumoniae SML86, known carbapenemase none",−1861.1485
same,Carbapenemase Activity,"K. pneumoniae; K. pneumoniae SML87, known carbapenemase none",−3075.4205
same,Carbapenemase Activity in various concentrations of imipenem,"K pneumoniae [1]; K pneumoniae AR 34, known carbapenemase IMP, 50 μg/mL imipenem",1034.5
same,Carbapenemase Activity in various concentrations of imipenem,"K pneumoniae [1]; K pneumoniae AR 34, known carbapenemase IMP, 125 μg/mL imipenem",2776.5
same,Carbapenemase Activity in various concentrations of imipenem,"K pneumoniae [1]; K pneumoniae AR 34, known carbapenemase IMP, 250 μg/mL imipenem",2456.5
same,Carbapenemase Activity in various concentrations of imipenem,"K pneumoniae [1]; K pneumoniae AR 34, known carbapenemase IMP, 500 μg/mL imipenem",1807.5
same,Carbapenemase Activity in various concentrations of imipenem,"K pneumoniae [1]; K pneumoniae AR 34, known carbapenemase IMP, 1250 μg/mL imipenem",1148
same,Carbapenemase Activity in various concentrations of imipenem,"K pneumoniae [1]; K pneumoniae AR 34, known carbapenemase IMP, 2500 μg/mL imipenem",637.5
same,Carbapenemase Activity in various concentrations of imipenem,"K pneumoniae [1]; K pneumoniae ATCC BAA-2342, known carbapenemase KPC, 50 μg/mL imipenem",1817
same,Carbapenemase Activity in various concentrations of imipenem,"K pneumoniae [1]; K pneumoniae ATCC BAA-2342, known carbapenemase KPC, 125 μg/mL imipenem",4702.5
same,Carbapenemase Activity in various concentrations of imipenem,"K pneumoniae [1]; K pneumoniae ATCC BAA-2342, known carbapenemase KPC, 250 μg/mL imipenem",4270.5
same,Carbapenemase Activity in various concentrations of imipenem,"K pneumoniae [1]; K pneumoniae ATCC BAA-2342, known carbapenemase KPC, 500 μg/mL imipenem",3708
same,Carbapenemase Activity in various concentrations of imipenem,"K pneumoniae [1]; K pneumoniae ATCC BAA-2342, known carbapenemase KPC, 1250 μg/mL imipenem",3251
same,Carbapenemase Activity in various concentrations of imipenem,"K pneumoniae [1]; K pneumoniae ATCC BAA-2342, known carbapenemase KPC, 2500 μg/mL imipenem",3114.5
same,Carbapenemase Activity in various concentrations of imipenem,"E coli [2]; E coli AR 69, known carbapenemase NDM, 50 μg/mL imipenem",1111
same,Carbapenemase Activity in various concentrations of imipenem,"E coli [2]; E coli AR 69, known carbapenemase NDM, 125 μg/mL imipenem",3367
same,Carbapenemase Activity in various concentrations of imipenem,"E coli [2]; E coli AR 69, known carbapenemase NDM, 250 μg/mL imipenem",2827
same,Carbapenemase Activity in various concentrations of imipenem,"E coli [2]; E coli AR 69, known carbapenemase NDM, 500 μg/mL imipenem",2300.5
same,Carbapenemase Activity in various concentrations of imipenem,"E coli [2]; E coli AR 69, known carbapenemase NDM, 1250 μg/mL imipenem",1908.5
same,Carbapenemase Activity in various concentrations of imipenem,"E coli [2]; E coli AR 69, known carbapenemase NDM, 2500 μg/mL imipenem",1902.5
same,Carbapenemase Activity in various concentrations of imipenem,"E coli [2]; E coli AR 114, known carbapenemase KPC3, 50 μg/mL imipenem",930.5
same,Carbapenemase Activity in various concentrations of imipenem,"E coli [2]; E coli AR 114, known carbapenemase KPC3, 125 μg/mL imipenem",3793.5
same,Carbapenemase Activity in various concentrations of imipenem,"E coli [2]; E coli AR 114, known carbapenemase KPC3, 250 μg/mL imipenem",3342.5
same,Carbapenemase Activity in various concentrations of imipenem,"E coli [2]; E coli AR 114, known carbapenemase KPC3, 500 μg/mL imipenem",2784.5
same,Carbapenemase Activity in various concentrations of imipenem,"E coli [2]; E coli AR 114, known carbapenemase KPC3, 1250 μg/mL imipenem",2173.5
same,Carbapenemase Activity in various concentrations of imipenem,"E coli [2]; E coli AR 114, known carbapenemase KPC3, 2500 μg/mL imipenem",1825.5
same,Carbapenemase Activity in various concentrations of imipenem,"E coli [2]; E coli ATCC 25922, known carbapenemase none, 50 μg/mL imipenem",−70.5
same,Carbapenemase Activity in various concentrations of imipenem,"E coli [2]; E coli ATCC 25922, known carbapenemase none, 125 μg/mL imipenem",−522
same,Carbapenemase Activity in various concentrations of imipenem,"E coli [2]; E coli ATCC 25922, known carbapenemase none, 250 μg/mL imipenem",−599.5
same,Carbapenemase Activity in various concentrations of imipenem,"E coli [2]; E coli ATCC 25922, known carbapenemase none, 500 μg/mL imipenem",−558.5
same,Carbapenemase Activity in various concentrations of imipenem,"E coli [2]; E coli ATCC 25922, known carbapenemase none, 1250 μg/mL imipenem",−463.5
same,Carbapenemase Activity in various concentrations of imipenem,"E coli [2]; E coli ATCC 25922, known carbapenemase none, 2500 μg/mL imipenem",−282
same,Carbapenemase Activity,"K pneumoniae [3]; K pneumoniae ATCC 700603, known carbapenemase none, 300 μg/mL imipenem",−2026
same,Carbapenemase Activity,"K pneumoniae [3]; K pneumoniae ATCC BAA-1705, known carbapenemase KPC2, 300 μg/mL imipenem",19742
same,Carbapenemase Activity,"K pneumoniae [3]; K pneumoniae ATCC BAA-2814, known carbapenemase KPC3, 300 μg/mL imipenem",18057
same,Carbapenemase Activity,E coli [4],−6116
